One experiment has as its system JAK1/JAK2. The class given is cell-based, human.
Experiment [1] has as its system PC3 human prostate cancer cells. Format: cell-based.
Experiment [2] has as its target T1, complement C3 (Homo sapiens, UniProt P01024). Format: cell-based. Conditions: 72 h.
Experiment [3] deals with T1, complement C3. The class given is cell-based. Particulars: 48 h.
In experiment [4] the test system is PC3 human prostate cancer cells. Format: cell-based. The source holds these as a separate data set.

“And” between values parts separate entries of the source, which are not always exact repeats. Identical values can stand only once. Like-named read-outs stand apart in the source and are kept apart here.

T1 sequence (P01024 672-1663): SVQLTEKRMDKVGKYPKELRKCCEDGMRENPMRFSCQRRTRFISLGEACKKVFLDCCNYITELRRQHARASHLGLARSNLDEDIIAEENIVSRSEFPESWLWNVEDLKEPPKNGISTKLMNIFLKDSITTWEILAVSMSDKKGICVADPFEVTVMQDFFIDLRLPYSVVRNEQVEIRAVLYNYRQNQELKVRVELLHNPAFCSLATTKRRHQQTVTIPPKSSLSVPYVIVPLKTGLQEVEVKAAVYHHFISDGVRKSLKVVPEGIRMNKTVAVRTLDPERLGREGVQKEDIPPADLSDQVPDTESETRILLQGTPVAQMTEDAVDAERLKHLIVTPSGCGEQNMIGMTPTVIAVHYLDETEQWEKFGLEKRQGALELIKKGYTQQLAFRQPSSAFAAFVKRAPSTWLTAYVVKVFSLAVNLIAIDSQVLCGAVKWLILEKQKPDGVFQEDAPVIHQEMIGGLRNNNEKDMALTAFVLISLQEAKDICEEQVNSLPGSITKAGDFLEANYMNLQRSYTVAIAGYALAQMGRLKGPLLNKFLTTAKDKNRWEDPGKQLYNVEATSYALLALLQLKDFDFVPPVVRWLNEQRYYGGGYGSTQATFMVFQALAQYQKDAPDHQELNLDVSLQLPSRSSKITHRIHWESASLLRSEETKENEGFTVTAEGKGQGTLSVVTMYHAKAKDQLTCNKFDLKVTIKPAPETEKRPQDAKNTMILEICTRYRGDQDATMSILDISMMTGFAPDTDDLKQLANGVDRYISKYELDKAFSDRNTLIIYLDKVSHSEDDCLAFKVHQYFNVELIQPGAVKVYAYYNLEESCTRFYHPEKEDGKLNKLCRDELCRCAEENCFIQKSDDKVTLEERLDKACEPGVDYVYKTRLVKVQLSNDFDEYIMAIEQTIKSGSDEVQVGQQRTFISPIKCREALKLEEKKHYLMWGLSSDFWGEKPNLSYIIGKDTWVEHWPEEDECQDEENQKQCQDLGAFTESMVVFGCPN
T1 sequence (P01024 23-667): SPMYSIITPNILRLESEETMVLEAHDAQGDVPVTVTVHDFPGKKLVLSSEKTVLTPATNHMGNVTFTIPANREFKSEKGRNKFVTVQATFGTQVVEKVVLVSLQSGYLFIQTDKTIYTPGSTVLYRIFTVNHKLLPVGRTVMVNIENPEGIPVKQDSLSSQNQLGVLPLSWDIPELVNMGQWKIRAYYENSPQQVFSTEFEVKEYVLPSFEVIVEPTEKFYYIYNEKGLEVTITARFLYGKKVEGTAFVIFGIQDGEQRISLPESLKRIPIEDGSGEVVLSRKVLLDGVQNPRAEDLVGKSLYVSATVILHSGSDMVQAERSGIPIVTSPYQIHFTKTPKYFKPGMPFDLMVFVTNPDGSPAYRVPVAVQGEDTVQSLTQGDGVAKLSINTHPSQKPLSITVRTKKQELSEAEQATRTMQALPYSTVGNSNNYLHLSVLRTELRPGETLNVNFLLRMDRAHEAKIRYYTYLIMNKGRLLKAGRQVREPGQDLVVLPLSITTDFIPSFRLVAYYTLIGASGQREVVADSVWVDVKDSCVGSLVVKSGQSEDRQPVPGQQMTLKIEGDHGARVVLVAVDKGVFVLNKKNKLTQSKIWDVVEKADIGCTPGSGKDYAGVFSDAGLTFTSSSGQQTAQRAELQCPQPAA

Turning to `N#CC[C@H](C1CCCC1)n1cc(-c2ncnc3[nH]ccc23)cn1` [Ruxolitinib], the “Average Fluorescence Intensity Density” value was 0.074 and 0.0755 and 0.0735 in the experiment on JAK1/JAK2; 3.8 and 6.0 in experiment [1].
For the molecule `CC[C@H](C)[C@H](N)C(=O)N[C@H]1CSSC[C@@H](C(=O)N[C@H](C(N)=O)[C@@H](C)O)NC(=O)[C@H](CCCN=C(N)N)NC(=O)[C@H](Cc2cnc[nH]2)NC(=O)[C@H](Cc2cnc[nH]2)NC(=O)CNC(=O)[C@H](Cc2c[nH]c3ccccc23)NC(=O)[C@H](CC(=O)O)NC(=O)[C@H](CCC(N)=O)NC(=O)[C@H](C(C)C)NC(=O)[C@H](C(C)C)NC1=O` [compstatin], on complement C3 [2], the “% Increase in Fluorescence” value was 50%, the “Average Fluorescence Intensity Density” value was 0.09 and the “increase of fluorescent signal compared to control cells” value came out at 50%. Further, at complement C3 [3], the “Average Fluorescence Intensity Density” value is 0.0945 and 0.0670 and 0.0920; the “increase of fluorescence intensity vs serum only control” value came to 27.7%. For the same molecule, the “increase of fluorescence intensity (partial reversal of complement-mediated suppression of virus spreading)” value in experiment [4] was found to be 28.5%. The “Average Fluorescence Intensity Density” value in experiment [4] (48 h) worked out at 36.4.

Values taken from patent publication US11505782B2 (priority 2018, dated 2022).
